# Tests used:
# [1] = Elution of DAA-I from stents coated with increasing amounts of TEOS; format: physicochemical; details: 0.1-0.5M TEOS with constant DAA-I 1.25 mg/mL; effect of increasing TEOS to drug molar ratio; 9 mm stents; FIGS. 5A-5B
# Procedure: To explore the effects of increasing the amount of TEOS on the rate of elution of DAA-I, increasing amounts, from 0.1-0.5M of TEOS were added to a constant amount of DAA-I (1.25 mg/mL) according to the methods and protocols described above. The stents (9 mm, n=4) were sprayed with each of the solutions as described above, weighed, and the amounts DAA-I eluted over a 24 hour period were compared.
# [2] = pH 5
# Procedure: Referring to FIG. 4, elution of DAA-I from the TEOS coated stents was measured by analyzing the amount of DAA-I found in 0.1% solutol in ammonium acetate buffer, pH 5.0, as a function of time, when the stents were incubated in this medium at 37° C. The amount of DAA-I was determined by integrating the DAA-I peak in high performance liquid chromatography (HPLC) profiles using a Altima C-8 column (Altech, Chicago Ill.) and comparison to standard curves.
substance,measurement,setting,value
des-aspartate angiotensin I [DAA-I],rate of release of the drug into aqueous solution,[1],significantly delayed the rate of release
same,rate of DAA-I elution,[2],slow the rate of DAA-I elution
